Earlier results, collected in patent US20250011247A1, “GYPSUM HARDENED PRODUCT” (KAO CORPORATION, priority 2022, published 2025).

Settings: 1-octanol/water; measured value if any, otherwise C log P calculated by C LOG P v 4.01

log P: 1.31
Compound: CCCCC=O [pentanal]
